{"source": "patent US20100311912A1", "about": "“ANTIMICROBIAL SURFACES” (priority 2008, published 2010)", "format_in_all_cases": "cell-based", "key": {"[1]": {"test_system": "Staphylococcus aureus ATCC 29213", "assay": "Broth micro dilution assay for MIC and MBC", "conditions": "S. aureus ATCC 29213", "method": "All bacteria were grown on blood agar plates (Colombia agar-CM331, Oxoid Limited, Basingstoke, Hampshire, United Kingdom) supplemented with 5% v/v sheep blood) at 37° C. The Streptococcus species were incubated at 37° C. in the presence of 5% carbon dioxide (CO2).\nDuplicate two-fold serial dilutions of test sample (100 μL/well) were prepared in sterile round-bottom 96-well plates (Sarstedt Australia Pty Ltd, Technology Park, SA, Australia), in the appropriate broth containing 2% DMSO. Bacterial cell suspension (100 μL) corresponding to 1×10^6 CFU/mL was added in all wells with the exception of wells containing saline, test sample and media sterility controls, respectively. Controls for bacterial growth without test sample were also included on each plate. Plates were then placed on a shaker for 10 min and incubated at 37° C. overnight. […] Vancomycin and gentamicin (Sigma, St Louis, Mo., United States of America) were used as positive controls for the Gram-positive and Gram-negative bacteria, respectively. Following the determination of the MIC, the MBC was determined by transferring a 10 μL aliquot from each of the wells at the concentration corresponding to the MIC and those concentrations above into 190 μL of appropriate broth in a sterile 96-well plate. […] The presence or absence of bacterial growth was determined by visual inspection. The MBC was considered to be the lowest concentration of the compound at which no growth occurred."}, "[2]": {"test_system": "Gram-negative bacteria tested", "assay": "Broth micro dilution assay, Gram-negative bacteria", "conditions": "all Gram-negative bacteria tested, maximum concentrations tested", "method": "(§1) Staphylococcus aureus ATCC 29213 obtained from stock cultures stored at −70° C. at the Sansom Institute (University of South Australia, Adelaide, SA, Australia) was used as the test microorganism in a bioassay guided fractionation process. […] All bacteria were grown on blood agar plates (Colombia agar-CM331, Oxoid Limited, Basingstoke, Hampshire, United Kingdom) supplemented with 5% v/v sheep blood) at 37° C. The Streptococcus species were incubated at 37° C. in the presence of 5% carbon dioxide (CO2). Brain Heart Infusion broth (CM 225, Oxoid Limited) was used for the experiments to determine the minimum inhibitory concentration (MIC) and minimum bactericidal concentration (MBC) for the Streptococcus species while cation adjusted MH II broth (Becton Dickinson France SAS, Le Point de Claix, France) was used for the Staphylococcus species and the Gram-negative bacteria tested.\nBroth micro dilution was used to determine the MIC of extract, fractions and pure compounds against S. aureus ATCC 29213. […] Following the determination of the MIC, the MBC was determined by transferring a 10 μL aliquot from each of the wells at the concentration corresponding to the MIC and those concentrations above into 190 μL of appropriate broth in a sterile 96-well plate. […] The presence or absence of bacterial growth was determined by visual inspection. […]"}, "[3]": {"test_system": "Gram-positive bacteria including S. aureus, S. pyogenes and S. pneumoniae", "assay": "Broth micro dilution assay, Gram-positive bacteria", "conditions": "for antimicrobial activity against other Gram-positive bacteria: S. aureus (ATCC 25925), S. pyogenes, S. pneumoniae, values not shown", "method": "as §1\n(§2) Broth micro dilution was used to determine the MIC of extract, fractions and pure compounds against S. aureus ATCC 29213. Duplicate two-fold serial dilutions of test sample (100 μL/well) were prepared in sterile round-bottom 96-well plates (Sarstedt Australia Pty Ltd, Technology Park, SA, Australia), in the appropriate broth containing 2% DMSO. Bacterial cell suspension (100 μL) corresponding to 1×10^6 CFU/mL was added in all wells with the exception of wells containing saline, test sample and media sterility controls, respectively. Controls for bacterial growth without test sample were also included on each plate. Plates were then placed on a shaker for 10 min and incubated at 37° C. overnight. […] Vancomycin and gentamicin (Sigma, St Louis, Mo., United States of America) were used as positive controls for the Gram-positive and Gram-negative bacteria, respectively. Following the determination of the MIC, the MBC was determined by transferring a 10 μL aliquot from each of the wells at the concentration corresponding to the MIC and those concentrations above into 190 μL of appropriate broth in a sterile 96-well plate. The plates were incubated under the same conditions as in the MIC experiment with the Streptococcus species incubated in the presence of 5% CO2. The presence or absence of bacterial growth was determined by visual inspection. The MBC was considered to be the lowest concentration of the compound at which no growth occurred."}, "[4]": {"test_system": "Streptococcus pneumoniae ATCC 49619", "assay": "Broth micro dilution assay for MIC and MBC", "conditions": "ATCC49619, S. pneumoniae ATCC 49619", "method": "as §1, §2"}, "[5]": {"test_system": "Streptococcus pyogenes ATCC 10389", "assay": "Broth micro dilution assay for MIC and MBC", "conditions": "ATCC10389, S. pyogenes ATCC 10389", "method": "as §1, §2"}, "[6]": {"test_system": "Salmonella typhimurium ATCC 13311", "assay": "Broth micro dilution assay for MIC and MBC", "conditions": "Salmonella enterica; S. typhimurium ATCC 13311; maximum concentration tested 250 μg/mL", "method": "as §1, §2"}, "[7]": {"test_system": "Escherichia coli ATCC 25922", "assay": "Broth micro dilution assay for MIC and MBC", "conditions": "ATCC25922, E. coli ATCC 25922, maximum concentration tested 250 μg/mL", "method": "as §1, §2"}, "[8]": {"test_system": "Staphylococcus aureus ATCC 25923", "assay": "Broth micro dilution assay for MIC and MBC", "conditions": "ATCC25923, S. aureus ATCC 25923", "method": "as §1, §2"}, "[9]": {"test_system": "Pseudomonas aeruginosa ATCC 27853", "assay": "Broth micro dilution assay for MIC and MBC", "conditions": "ATCC27853, P. aeruginosa ATCC 27853, maximum concentration tested 250 μg/mL", "method": "as §1, §2"}, "[10]": {"conditions": "range over Gram-positive bacteria of Table 2"}}, "note": "Like-named read-outs stand apart in the source and are kept apart here."}
{"compound": "8,20-diacetoxyserrulat-14-en-19-oic acid [Compound 5]", "values": [{"measurement": "MIC", "setting": "[1]", "value": 250, "unit": "µg/mL"}]}
{"compound": "8,20-dihydroxyserrulat-14-en-19-oic acid [Compound 4]", "values": [{"measurement": "MIC", "setting": "[1]", "value": 250, "unit": "µg/mL"}]}
{"compound": "CC(C)=CCCC1COC2=C(C)C(=O)C(=O)c3cccc1c32", "note": "(stereo not shown) [Compound 2, 9-methyl-3-(4-methyl-3-pentenyl)-2,3-dihydronaphtho[1,8-bc]pyran-7,8-dione]", "values": [{"measurement": "activity against Gram-negative bacteria", "setting": "[2]", "value": "Activity was not observed"}, {"measurement": "MBC", "setting": "[1]; Staphylococcus aureus, ATCC29213", "value": 125, "unit": "µg/mL"}, {"measurement": "MIC", "setting": "[1]; Staphylococcus aureus, ATCC29213, read-out: MIC", "value": 15.6, "unit": "µg/mL"}, {"measurement": "MBC", "setting": "[3]; [10]", "value": "7.8 to 125", "unit": "µg/mL"}, {"measurement": "MIC", "setting": "[3]; [10]", "value": "7.8 to 15.6", "unit": "µg/mL"}, {"measurement": "MBC", "setting": "[4]", "value": 7.8, "unit": "µg/mL"}, {"measurement": "MIC", "setting": "[4]", "value": 7.8, "unit": "µg/mL"}, {"measurement": "MBC", "setting": "[5]", "value": 15.6, "unit": "µg/mL"}, {"measurement": "MIC", "setting": "[5]", "value": 7.8, "unit": "µg/mL"}, {"measurement": "MBC", "setting": "[6]", "value": "> 250", "unit": "µg/mL"}, {"measurement": "MIC", "setting": "[6]", "value": "> 250", "unit": "µg/mL"}, {"measurement": "MBC", "setting": "[7]", "value": "> 250", "unit": "µg/mL"}, {"measurement": "MIC", "setting": "[7]", "value": "> 250", "unit": "µg/mL"}, {"measurement": "MBC", "setting": "[8]", "value": 15.6, "unit": "µg/mL"}, {"measurement": "MIC", "setting": "[8]", "value": 7.8, "unit": "µg/mL"}, {"measurement": "MBC", "setting": "[9]", "value": "> 250", "unit": "µg/mL"}, {"measurement": "MIC", "setting": "[9]", "value": "> 250", "unit": "µg/mL"}]}
{"compound": "CC(=O)OCC(CCC=C(C)C)C1CCC(C)c2ccc(C(=O)O)c(O)c21", "note": "(stereo not shown) [Compound 3, 20-acetoxy-8-hydroxyserrulat-14-en-19-oic acid]", "values": [{"measurement": "MIC", "setting": "[1]", "value": 125, "unit": "µg/mL"}]}
{"compound": "CC(C)=CCCC(C)C1CCC(C)c2cc(CO)c(O)cc21", "note": "(stereo not shown) [Compound 7, 8,19-dihydroxyserrulat-14-ene]", "values": [{"measurement": "antimicrobial activity against other Gram-positive bacteria", "setting": "[3]", "value": "showed antimicrobial activity"}]}
{"compound": "CC(C)=CCCC(C)C1CCC(C)c2cc(C(=O)O)c(O)cc21", "note": "(stereo not shown) [Compound 8, 8-hydroxyserrulat-14-en-19-oic acid]", "values": [{"measurement": "antimicrobial activity against other Gram-positive bacteria", "setting": "[3]", "value": "showed antimicrobial activity"}]}
